# Measured values from ChEMBL document CHEMBL1146398, “Cardenolides from the methanolic extract of Nerium oleander leaves possessing central nervous system depressant activity in mice” (J Nat Prod, 1997).
# Calls of active or inactive are those of the source. The rule behind the calls is not given here.
# Legend:
# Format in all cases: functional, organism-based
# Mus musculus [1] = assay: Central nervous system depression activity in mouse assessed as decrease in touch response at 25 mg/kg, ip; set-up: dose 25 mg/kg
# Mus musculus [2] = assay: Central nervous system depression activity in mouse assessed as fast respiration at 50 mg/kg, ip after 40 mins; set-up: dose 50 mg/kg
# Mus musculus [3] = assay: Central nervous system depression activity in mouse assessed as tremors on movement at 50 mg/kg, ip after 60 mins; set-up: dose 50 mg/kg
# Mus musculus [4] = assay: Central nervous system depression activity in mouse assessed as staggering gait at 25 mg/kg, ip after 30 mins; set-up: dose 25 mg/kg
# Mus musculus [5] = assay: Central nervous system depression activity in mouse assessed as abduction of limbs at 50 mg/kg, ip after 60 mins; set-up: dose 50 mg/kg
# Mus musculus [6] = assay: Central nervous system depression activity in mouse assessed as decrease in locomotor activity at 50 mg/kg, ip; set-up: dose 50 mg/kg
# Mus musculus [7] = assay: Central nervous system depression activity in mouse assessed as decrease in body and limb tone at 50 mg/kg, ip after 60 mins; set-up: dose 50 mg/kg
# Mus musculus [8] = assay: Central nervous system depression activity in mouse assessed as induction of passivity at 50 mg/kg, ip after 60 mins; set-up: dose 50 mg/kg
# Mus musculus [9] = assay: Central nervous system depression activity in mouse assessed as staggering gait at 50 mg/kg, ip after 40 mins; set-up: dose 50 mg/kg
# Mus musculus [10] = assay: Central nervous system depression activity in mouse assessed as decrease in locomotor activity at 25 mg/kg, ip; set-up: dose 25 mg/kg
# Mus musculus [11] = assay: Central nervous system depression activity in mouse assessed as decrease in touch response at 50 mg/kg, ip; set-up: dose 50 mg/kg
# Mus musculus [12] = assay: Central nervous system depression activity in mouse assessed as ptosis at 25 mg/kg, ip; set-up: dose 25 mg/kg
# Mus musculus [13] = assay: Central nervous system depression activity in mouse assessed as passivity at 25 mg/kg, ip; set-up: dose 25 mg/kg
# Mus musculus [14] = assay: Central nervous system depression activity in mouse assessed as staggering gait at 25 mg/kg, ip; set-up: dose 25 mg/kg
Compound,Activity (Mus musculus [1]),Activity (Mus musculus [2]),Activity (Mus musculus [3]),Activity (Mus musculus [4]),Activity (Mus musculus [5]),Activity (Mus musculus [6]),Activity (Mus musculus [7]),Activity (Mus musculus [8]),Activity (Mus musculus [9]),Activity (Mus musculus [10]),Activity (Mus musculus [11]),Activity (Mus musculus [12]),Activity (Mus musculus [13]),Activity (Mus musculus [14])
CO[C@H]1[C@@H](O)[C@@H](C)O[C@@H](O[C@H]2CC[C@@]3(C)[C@H](CC[C@@H]4[C@@H]3CC[C@]3(C)[C@@H](C5=CC(=O)OC5)[C@@H](OC(C)=O)C[C@]43O)C2)[C@@H]1O,inactive,Active,Active,Active,Active,Active,Active,Active,,,,,,
CO[C@H]1[C@H](O[C@H]2CC[C@@]3(C)[C@H](CC[C@@H]4[C@@H]3CC[C@]3(C)C(C5=CC(=O)OC5)=CC[C@]43O)C2)O[C@H](C)[C@H](O)[C@@H]1OC,inactive,,,,,Active,,,Active,Active,Active,,,
CO[C@H]1[C@@H](O)[C@@H](C)O[C@@H](O[C@H]2CC[C@@]3(C)[C@H](CC[C@@H]4[C@@H]3CC[C@]3(C)[C@@H](C5=CC(=O)OC5)CC[C@]43O)C2)[C@@H]1O,Active,,,,,Active,,,,Active,,Active,Active,Active
